Measured values published in ChEMBL document CHEMBL5360578, “Design, synthesis and evaluation of novel pyrrole-hydroxybutenolide hybrids as promising antiplasmodial and anti-inflammatory agents” (Eur J Med Chem, 2023).
Activity calls are given as the source filed them. The rule behind the calls is not given here.

Tests used:
Plasmodium falciparum [1] = experiment: Antimalarial activity against asynchronous chloroquine-sensitive Plasmodium falciparum 3D7 assessed as parasite growth inhibition infected in erythrocytes incubated for 72 hrs by SYBR green dye based assay; format: functional, organism-based; settings: 3D7, 72 h
THP-1 [2] = experiment: Antiinflammatory activity against human THP-1 cells assessed as inhibition of LPS-induced TNFalpha level at 10 uM incubated for 12 to 14 hrs followed by compound replenishment for 1 hr and subsequent LPS treatment for 4 hrs by ELISA assay (reference value: 93.43 %); format: functional; design: scale not given: the % may be the effect or the level left; settings: time 17-19 hrs
HEK-293T [3] = experiment: Antiinflammatory activity against HEK293T cells assessed as fold increase in TNFalpha-induced NF-kappaB activity at 10 uM incubated for 1 hr followed by TNFalpha treatment for 5 hrs by luciferase based assay (reference value: 17.1); format: functional, Homo sapiens
THP-1 [4] = experiment: Cytotoxicity against LPS-stimulated human THP-1 cells assessed as cell viability at 10 uM incubated for 12 hrs followed by LPS treatment measured after 4 hrs by PI staining based flow cytometry; format: functional; settings: time 16.0 hrs
Plasmodium falciparum [5] = experiment: Antimalarial activity against asynchronous chloroquine-resistant Plasmodium falciparum K1 assessed as parasite growth inhibition infected in erythrocytes incubated for 72 hrs by SYBR green dye based assay; format: functional, organism-based; settings: K1, 72 h
[6] = Cytotoxicity against African green monkey Vero cells incubated for 3 days by fluorescence based assay; format: toxicity, cell-based; settings: chlorocebus sabaeus, time 3 day
Plasmodium yoelii [7] = experiment: Antimalarial activity against chloroquine-resistant Plasmodium yoelii N67 infected in Swiss mouse assessed as parasite growth suppression at 100 mg/kg/day, po for 4 days measured on day 4 relative to control; format: functional; settings: time 4 day
Plasmodium yoelii [8] = experiment: Antimalarial activity against chloroquine-resistant Plasmodium yoelii N67 infected in Swiss mouse assessed as parasite growth suppression at 100 mg/kg/day, po for 4 days measured on day 7 relative to control; format: functional; settings: time 7 day
[9] = Toxicity in Swiss mouse infected with chloroquine-resistant Plasmodium yoelii N67 assessed as mean survival time at 100 mg/kg/day, po for 4 days (reference value: 7.2 +/- 1.3 day); format: organism-based; settings: in vivo, 96 h, time 4 day
HEK-293T [10] = experiment: Antiinflammatory activity against HEK293T cells assessed as fold increase in TNFalpha-induced NF-kappaB activity at 1 uM incubated for 1 hr followed by TNFalpha treatment for 5 hrs by luciferase based assay (reference value: 17.1); format: functional, Homo sapiens; settings: time 6 hrs
[11] = Stability in simulated gastric fluid assessed as compound remaining at pH 1.2 measured upto 120 mins by LC-MS analysis; format: ADME; settings: read-out: Stability
[12] = Stability in simulated intestinal fluid assessed as compound remaining at pH 6.8 measured upto 120 mins by LC-MS analysis; format: ADME; settings: read-out: Stability
Mus musculus [13] = experiment: Antiinflammatory activity in Swiss albino mouse assessed as inhibition of carrageenan-induced paw edema at 25 mg/kg,po pretreated for 1 hr followed by carrageenan administration measured after 4 hrs relative to control; format: functional; settings: time 5 hrs
Mus musculus [14] = experiment: Antiinflammatory activity in Swiss albino mouse assessed as inhibition of carrageenan-induced paw edema at 50 mg/kg,po pretreated for 1 hr followed by carrageenan administration measured after 4 hrs relative to control; format: functional; settings: time 5 hrs
Mus musculus [15] = experiment: Antiinflammatory activity in Swiss albino mouse assessed as inhibition of carrageenan-induced paw edema at 100 mg/kg,po pretreated for 1 hr followed by carrageenan administration measured after 4 hrs relative to control; format: functional; settings: time 5 hrs
Mus musculus [16] = experiment: Antiinflammatory activity in Swiss albino mouse assessed as inhibition of carrageenan-induced paw edema at 25 mg/kg,po pretreated for 1 hr followed by carrageenan administration measured after 6 hrs relative to control; format: functional; settings: time 7 hrs
Mus musculus [17] = experiment: Antiinflammatory activity in Swiss albino mouse assessed as inhibition of carrageenan-induced paw edema at 50 mg/kg,po pretreated for 1 hr followed by carrageenan administration measured after 6 hrs relative to control; format: functional; settings: time 7 hrs
Mus musculus [18] = experiment: Antiinflammatory activity in Swiss albino mouse assessed as inhibition of carrageenan-induced paw edema at 100 mg/kg,po pretreated for 1 hr followed by carrageenan administration measured after 6 hrs relative to control; format: functional; settings: time 7 hrs
THP-1 [19] = experiment: Downregulation of LPS-induced ERK1/2 phosphorylation in human THP-1 cells at 10 uM incubated for 60 mins followed by LPS treatment 90 mins by […]; format: functional, cell-based; settings: time 150.0 min
THP-1 [20] = experiment: Downregulation of LPS-induced JNK1/2 phosphorylation in human THP-1 cells at 10 uM incubated for 60 mins followed by LPS treatment 90 mins by […]; format: functional, cell-based; settings: time 150.0 min
[21] = Stability in simulated physiological fluid assessed as compound remaining at pH 7.4 measured upto 120 mins by LC-MS analysis; format: physicochemical; settings: read-out: Stability
[22] = Stability in mouse plasma assessed as compound remaining at 10 uM measured upto 120 mins by LC-MS analysis; format: ADME, cell-free; settings: read-out: Stability
[23] = Cmax in fasted Swiss mouse at 50 mg/kg, po measured upto 48 hrs by LC-MS/MS analysis; format: ADME, organism-based; design: time < 48 hrs, dose 50 mg/kg, route po; settings: in vivo
[24] = Tmax in fasted Swiss mouse at 50 mg/kg, po measured upto 48 hrs by LC-MS/MS analysis; format: ADME, organism-based; settings: in vivo
[25] = AUC in fasted Swiss mouse at 50 mg/kg, po measured upto 48 hrs by LC-MS/MS analysis; format: ADME, organism-based; design: time < 48 hrs, dose 50 mg/kg, route po; settings: in vivo
[26] = Half life in fasted Swiss mouse at 50 mg/kg, po measured upto 48 hrs by LC-MS/MS analysis; format: ADME, organism-based; settings: in vivo
[27] = Clearance in fasted Swiss mouse at 50 mg/kg, po measured upto 48 hrs by LC-MS/MS analysis; format: ADME, organism-based; settings: in vivo
[28] = Volume of distribution in fasted Swiss mouse at 50 mg/kg, po measured upto 48 hrs by LC-MS/MS analysis; format: ADME, organism-based; settings: in vivo
[29] = MRT in fasted Swiss mouse at 50 mg/kg, po measured upto 48 hrs by LC-MS/MS analysis; format: ADME, organism-based; settings: in vivo

| Structure (SMILES) | IC50 (Plasmodium falciparum [1]) [nM] | Activity (THP-1 [2]) [%] | fold change (FC) (HEK-293T [3]) | Activity (THP-1 [4]) | further results |
| --- | --- | --- | --- | --- | --- |
| Cc1c(C(=O)Nc2ccccc2)c(-c2ccccc2)c(-c2ccccc2)n1CCC1=CC(=O)OC1O (stereo not given) | 2830 | 13.5 | 10.3 | Active | – |
| Cc1c(C(=O)Nc2ccccc2)c(-c2ccc(Cl)cc2)c(-c2ccc(Cl)cc2)n1CC1=CC(=O)OC1O (stereo not given) | 1870 | 91.04 | 8.5 | Active | – |
| Cc1c(C(=O)Nc2ccccc2)c(-c2ccccc2)c(-c2ccc(F)cc2)n1CCC1=CC(=O)OC1O (stereo not given) | 880 | 89.15 | 11.4 | Active | IC50 (Plasmodium falciparum [5]): 4310 nM; CC50 at 72 h [6]: > 200000 nM; Activity (Plasmodium yoelii [7]): 56.4%; Activity (Plasmodium yoelii [8]): 46.6%; MST [9]: 8 days |
| COc1ccc(-c2c(C(=O)Nc3ccccc3)c(C)n(CC3=CC(=O)OC3O)c2-c2ccc(OC)cc2)cc1 (stereo not given) | 1800 | 19.82 | 9.8 | Active | – |
| COc1ccc(-c2c(-c3ccccc3)c(C(=O)Nc3ccccc3)c(C)n2CCC2=CC(=O)OC2O)cc1 (stereo not given) | > 5000 | – | – | – | – |
| Cc1c(C(=O)Nc2ccccc2)c(-c2ccccc2)c(-c2ccc(C(C)C)cc2)n1C | 2940 | – | – | – | IC50 (Plasmodium falciparum [5]): 4340 nM |
| Cc1c(C(=O)Nc2ccccc2)c(-c2ccccc2)c(-c2ccc(F)cc2)n1CC1=CC(=O)OC1O (stereo not given) | 2660 | 83.11 | 10.3 | Active | – |
| O=C1C=C(O)CO1 | 4880 | – | – | – | IC50 (Plasmodium falciparum [5]): > 5000 nM |
| S=C(S)N1CCCC1 [PYRROLIDINE DITHIOCARBAMATE] | – | – | – | – | fold change (FC) (HEK-293T [10]): 2.3 |
| CC(C)c1c(C(=O)Nc2ccccc2)c(-c2ccccc2)c(-c2ccc(F)cc2)n1CC[C@@H](O)C[C@@H](O)CC(=O)O [ATORVASTATIN] | 4600 | – | – | – | IC50 (Plasmodium falciparum [5]): > 5000 nM |
| Cc1ccc(-c2c(C(=O)Nc3ccccc3)c(C)n(CCC3=CC(=O)OC3O)c2-c2ccc(C)cc2)cc1 (stereo not given) | > 5000 | – | – | – | – |
| Cc1c(C(=O)Nc2ccccc2)c(-c2ccccc2)c(-c2ccccc2)n1CC1=CC(=O)OC1O (stereo not given) | 1420 | 78.73 | 10.6 | Active | – |
| Cc1c(C(=O)Nc2ccccc2)c(-c2ccc(Cl)cc2)c(-c2ccc(Cl)cc2)n1CCC1=CC(=O)OC1O (stereo not given) | 1470 | 92.36 | 9.9 | Active | remaining at 2 h [11]: 89.5%; remaining at 2 h [12]: 84.4%; inhibition in vivo at 25 mg/kg (Mus musculus [13]): 61%; inhibition in vivo at 50 mg/kg (Mus musculus [14]): 62%; inhibition in vivo at 100 mg/kg (Mus musculus [15]): 73%; inhibition in vivo at 25 mg/kg (Mus musculus [16]): 56%; inhibition in vivo at 50 mg/kg (Mus musculus [17]): 56%; inhibition in vivo at 100 mg/kg (Mus musculus [18]): 65%; Activity (THP-1 [19]): Active; Activity (THP-1 [20]): Active; remaining at 2 h [21]: 87.9%; remaining at 2 h, 10 µM [22]: 86.5%; Cmax [23]: 110 ng/mL; Tmax [24]: 15 min; AUC at 48 h [25]: 86.9 ng·h/mL; half-life [26]: 52.2 min; CL/F [27]: 589 L/h/kg; Vd [28]: 754.5 L/kg; MRT [29]: 61.2 min |
| CCc1ccc(-c2c(-c3ccccc3)c(C(=O)Nc3ccccc3)c(C)n2CC2=CC(=O)OC2O)cc1 (stereo not given) | 1210 | 89.97 | 7 | Active | – |
